{
  "source": "patent US7875601B2",
  "about": "“Cancer treatment with epothilones” (Novartis AG, priority 1998, dated 2011)",
  "key": {"ZR-75-1 (Breast)": {"system": "ZR-75-1 (Breast)", "experiment": "Antiproliferative assay, ZR-75-1", "type": "cell-based, human", "settings": "ZR-75-1, 5 d exposure, mean ± SD, n = 3; read-out: IC50 for growth inhibition", "experimental": "(§1) Antiproliferative assays are performed as previously described (Int. J. Cancer 43, 851-6 (1989)). Briefly, cells are seeded at 1.5×10^3 cells/well into 96-well microtiter plates and incubated overnight. Compounds are added in serial dilutions on day 1. The plates are then incubated for an additional 2 to 5 days, allowing for at least one cell doubling (cell line dependent), after which the cells are fixed with 3.3% v/v glutaraldehyde, washed with water and stained with 0.05% w/v methylene blue. After washing, the dye is eluted with 3% v/v HCl and the optical density measured at 665 nm with a SpectraMax 340 (Bucherer, Basel, Switzerland). IC50 values are determined by a computerized system (SoftPro, Bucherer, Basel, Switzerland) using the formula (OD test−OD start)/(OD control−OD start)×100. IC50 is defined as the drug concentration which leads to 50% of cells per well compared to control cultures (100%) at the end of incubation period."}, "HCT-15 (Colon)": {"system": "HCT-15 (Colon)", "experiment": "Antiproliferative assay, HCT-15", "type": "cell-based, human", "settings": "HCT-15, 5 d exposure, mean ± SD, n = 3; read-out: IC50 for growth inhibition", "source_text": "Human colorectal adenocarcinoma cell line HCT-15 (ATCC CCL 225) is from the American Type Culture Collection (Rockville, Md., USA), and the cells are cultivated in vitro as recommended by the supplier. HCT-15 is an epithelial-like cell line. (Cancer Res. 39: 1020-25 [1979]) that is multi-drug resistant by virtue of over-expression of P-glycoprotein (P-gp, gp170, MDR-1;Anticancer Res. 11: 1309-12 [1991]; J. Biol. Chem. 264: 18031-40 [1989]; Int. J. Cancer 1991; 49: 696-703 [1991]) and glutathione-dependent resistance mechanisms (Int. J. Cancer 1991; 49: 688-95 [1991]).\nas §1, with “IC50 is defined as the drug concentration which leads to 50% of cells per well compared to control cultures (100%) at the end of incubation period.” left out"}, "[1]": {"experiment": "Two-week intravenous toxicity study in mice", "type": "in vivo, normal female BALB/c mice", "experimental": "In order to assess the sub-chronic intravenous toxicity of epothilone B, a non-GLP two-week i.v. toxicity study in non-tumor bearing, normal female BALB/c mice is conducted, involving analysis of mortality, clinical signs, body weight, food consumption, hematology, clinical biochemistry, urinalysis, and organ weights as well as macro and microscopic examinations. The study is based on two different dosing regiments of epothilone B of 3 mg/kg and 10 mg/kg, respectively, administered on days 1 and 8 (8 animals per group). Half of the animals are killed on day 15 (main group) and necropsy is performed. For the other half (recovery group) a recovery period of 5 weeks is allowed after administration of the second dose before sacrifice and subsequent necropsy on day 43."}, "A549 (Lung)": {"system": "A549 (Lung)", "experiment": "Antiproliferative assay, A549", "type": "cell-based, human", "settings": "A549, 5 d exposure, mean ± SD, n = 3 (epothilone B n = 2); read-out: IC50 for growth inhibition", "experimental": "as §1"}, "[2]": {"system": "human COLO 205 colon tumors", "type": "in vivo, female BALB/c nude mice", "settings": "4 mg/kg, day 32", "experimental": "Female or male BALB/c nu/nu (nude) mice are kept under sterile conditions (10 to 12 mice per Type III cage) with free access to food and water. Mice weigh between 20 and 25 grams at the time of tumor implantation. Tumors are established by subcutaneous injection of cells (minimum 2×10^6 cells in 100 μl PBS or medium) in carrier mice (4-8 mice per cell line). The resulting tumors are serially passaged for a minimum of three consecutive transplantations prior to start of treatment. Tumor fragments (approx. 25 mg) are implanted s.c. into the left flank of animals with a 13-gauge trocar needle while the mice are exposed to Forene (Abbott, Switzerland) anesthesia.\nTumor growth and body weights are monitored once or twice weekly. All treatments are administered intravenously (i.v.) and are initiated when a mean tumor volume of approximately 100 to 250 mm^3 is attained, depending upon the tumor type. Tumor volumes are determined using the formula […] (see Cancer Chemother. Pharmacol. 24:148-154, [1989]). Treatments with epothilone B vary the dose and the frequency of administration. Comparator agents are administered according to previously determined optimal treatment regimens. In addition to presenting changes in tumor volumes over the course of treatment, antitumor activity is expressed as T/C % (mean increase of tumor volumes of treated animals divided by the mean increase of tumor volumes of control animals multiplied by 100). Tumor. regression (%) represents the smallest mean tumor volume compared to the mean tumor volume at the start of treatment, according to the formula Regression (%)=(1−Vend/Vstart)×100(Vend=final mean tumor volume, Vstart=mean tumor volume at the start of treatment. Any animals in which the tumor has reached a size exceeding approximately 1.5 to 2.5 cm^3 are sacrificed. Details can be found below."}, "[3]": {"settings": "3 mg/kg i.v. on days 1 and 8, day 15"}, "[4]": {"settings": "10 mg/kg i.v. on days 1 and 8, day 15"}, "[5]": {"settings": "both dose levels (3 and 10 mg/kg), day 15"}},
  "note": "Entries after “also recorded” stand apart in the source; their conditions may differ. Where two headings read alike, the source gives them in different places.",
  "data": [
    {"molecule": "C/C(=C\\c1csc(C)n1)[C@@H]1C[C@@H]2O[C@]2(C)CCC[C@H](C)[C@H](O)[C@@H](C)C(=O)C(C)(C)[C@@H](O)CC(=O)O1", "note": "[epothilone B]", "values": [
      {"measurement": "IC50", "setting": "ZR-75-1 (Breast)", "result": "0.64 ± 0.42", "unit": "nM"},
      {"measurement": "IC50", "setting": "HCT-15 (Colon)", "result": "0.41 ± 0.15", "unit": "nM"},
      {"measurement": "body weight loss", "setting": "[1]; 3 mg/kg i.v. on days 1 and 8", "result": "only apparent in the second week"},
      {"measurement": "atrophy of the thymus", "setting": "[1]; [3]", "result": "moderate"},
      {"measurement": "number of leukocytes, especially neutrophils and lymphocytes", "setting": "[1]; [3]", "result": "reduction in the number of leukocytes"},
      {"measurement": "sternal bone marrow histology", "setting": "[1]; [3]", "result": "minimal to slight erythroid and myeloid atrophy"},
      {"measurement": "organ weights at the end of the recovery period", "setting": "[1]; 3 mg/kg i.v. on days 1 and 8, day 43", "result": "comparable to those of control animals"},
      {"measurement": "mortalities throughout the treatment period", "setting": "[1]; 3 mg/kg i.v. on days 1 and 8, days 1-14", "result": "No mortalities"},
      {"measurement": "survival of the recovery group", "setting": "[1]; 3 mg/kg i.v. on days 1 and 8, up to day 43", "result": "all animals of the recovery group survive until the end of the study; also recorded: tolerated without mortality"},
      {"measurement": "hematological parameters at the end of the recovery period", "setting": "[1]; 3 mg/kg recovery group, day 43", "result": "normal for two out of the four animals"},
      {"measurement": "survival of the recovery group", "setting": "[1]; 10 mg/kg i.v. on days 1 and 8", "result": "all animals of the recovery group have to be sacrificed prematurely on day 19; also recorded: death (or sacrifice) of all treated animals"},
      {"measurement": "atrophy of the thymus", "setting": "[1]; [4]", "result": "marked"},
      {"measurement": "number of leukocytes, especially neutrophils and lymphocytes", "setting": "[1]; [4]", "result": "reduction in the number of leukocytes"},
      {"measurement": "spleen histology", "setting": "[1]; [4]", "result": "minimal lymphoid atrophy"},
      {"measurement": "sternal bone marrow histology", "setting": "[1]; [4]", "result": "minimal to slight myeloid hypoplasia"},
      {"measurement": "mortalities throughout the treatment period", "setting": "[1]; 10 mg/kg i.v. on days 1 and 8, days 1-14", "result": "No mortalities"},
      {"measurement": "body weight loss", "setting": "[1]; 10 mg/kg i.v. on days 1 and 8, first and second week", "result": "Body weight loss is observed for all animals"},
      {"measurement": "clinical chemistry profile", "setting": "[1]; 3 and 10 mg/kg i.v. on days 1 and 8", "result": "Only minor changes"},
      {"measurement": "intestinal mucosa (small and large intestine) histology", "setting": "[1]; [5]", "result": "Minimal single cell necrosis"},
      {"measurement": "organ weights", "setting": "[1]; [5]", "result": "pronounced changes in thymus, spleen, and uterus weights"},
      {"measurement": "IC50", "setting": "A549 (Lung)", "result": "0.19 ± 0.12", "unit": "nM"},
      {"measurement": "T/C", "setting": "[2]; i.v. every 7 days (days 14, 21, 28)", "result": "Regressions"},
      {"measurement": "% Body Weight Change", "setting": "[2]; i.v. every 7 days", "result": "−18 ± 1", "unit": "%"},
      {"measurement": "Regression", "setting": "[2]; i.v. every 7 days", "result": "−87", "unit": "%"},
      {"measurement": "Survival (No. alive/total)", "setting": "[2]; i.v. every 7 days", "result": "5/7"},
      {"measurement": "Δ Body Weight", "setting": "[2]; i.v. every 7 days", "result": "-4.0 ± 0.2", "unit": "g"},
      {"measurement": "Δ Tumor Volume (mm^3)", "setting": "[2]; i.v. every 7 days", "result": "−83 ± 7", "unit": "mm^3"},
      {"measurement": "T/C", "setting": "[2]; i.v. every 14 days (days 14 and 28)", "result": "Regressions"},
      {"measurement": "% Body Weight Change", "setting": "[2]; i.v. every 14 days", "result": "−4 ± 4", "unit": "%"},
      {"measurement": "Regression", "setting": "[2]; i.v. every 14 days", "result": "−69", "unit": "%"},
      {"measurement": "Survival (No. alive/total)", "setting": "[2]; i.v. every 14 days", "result": "7/7"},
      {"measurement": "Δ Body Weight", "setting": "[2]; i.v. every 14 days", "result": "-1.1 ± 1.0", "unit": "g"},
      {"measurement": "Δ Tumor Volume (mm^3)", "setting": "[2]; i.v. every 14 days", "result": "−62 ± 7", "unit": "mm^3"},
      {"measurement": "% Body Weight Change", "setting": "[2]; i.v. once", "result": "9 ± 1", "unit": "%"},
      {"measurement": "Regression", "setting": "[2]; i.v. once", "result": "−66", "unit": "%"},
      {"measurement": "Survival (No. alive/total)", "setting": "[2]; i.v. once", "result": "5/7"},
      {"measurement": "T/C", "setting": "[2]; i.v. once", "result": "Regressions"},
      {"measurement": "Δ Body Weight", "setting": "[2]; i.v. once", "result": "2.0 ± 0.1", "unit": "g"},
      {"measurement": "Δ Tumor Volume (mm^3)", "setting": "[2]; i.v. once", "result": "−58 ± 11", "unit": "mm^3"}
    ]}
  ]
}
